Data from PMC4172534 (Neuroscience, 2014).

Columns and labels:
GluK3/K5 heteromer = settings: read-out: glutamate EC50; ref Perrais et al, 2009a; cited from earlier work
GluK3 homomers = settings: read-out: glutamate EC50; ref Perrais et al, 2009a; cited from earlier work
[1] = test system: Homomeric GluK1 or GluK2 receptors; assay: Whole-cell patch-clamp current response, homomeric GluK1 or GluK2 receptors; type: cell-based, rat; settings: read-out: EC50 range; summary in discussion of own homomer values
GluK2/K5 receptors = settings: literature range; ref Jones et al., 1997; Alt et al., 2004; Jane et al., 2009; cited from earlier work
GluK2 receptors = settings: literature range; ref Jones et al., 1997; Alt et al., 2004; Jane et al., 2009; cited from earlier work

Row | Structure (SMILES) | EC50 (GluK3/K5 heteromer) [µM] | EC50 (GluK3 homomers) [µM] | EC50 [1] [µM] | EC50 (GluK2/K5 receptors) [µM] | EC50 (GluK2 receptors) [µM]
1 | N[C@@H](CCC(=O)O)C(=O)O [glutamate] | 6000 | 10000 | 100 to 200 |  | 
2 | C=C(C)[C@H]1CN[C@H](C(=O)O)[C@H]1CC(=O)O [kainate] |  |  |  | 1 to 5 | 1 to 5
